Measurements from patent US11787778B2, “Bi-functional compounds and methods for targeted ubiquitination of androgen receptor” (MONTELINO THERAPEUTICS, INC., priority 2019, dated 2023).
Like-named read-outs stand apart in the source and are kept apart here. Where a SMILES comes first, the peptide text is derived from it. [ ]: non-standard residue; d: D form. The star is where a group is joined. X1 = O=C(COc1c(-c2csc(N3CCOCC3)n2)ccc(F)c1F)NCCCCCCN*; X2 = Fc1ccc(-c2csc(N3CCOCC3)n2)c(OCCOCCOCCN*)c1F; Dip = N[C@H](C(=O)O)C(c1ccccc1)c1ccccc1; Chg = N[C@H](C(=O)O)C1CCCCC1; NMeA = CN[C@@H](C)C(=O)O

System: 22Rv1
Test: 22Rv1 cell count decrease
Assay type: cell-based
Conditions: Homo sapiens
Method: The human prostate cancer cell line, 22Rv1 has been reported to express a high level of AR-V7. […] Standard culture media was RPMI-1640 supplemented with 10% fetal bovine serum. The test compound initially was dissolved in DMSO at 50 mM. This stock solution was then diluted as needed for the indicated concentrations. […]

[1] = read-out: 22Rv1 cell count decrease at 10 uM for 48 hours, 22Rv1 cells, 10 uM, read-out: 22Rv1 cell count decrease at 10 uM

SMILES	inhibition at 10 µM (22Rv1, read-out: 22Rv1 cell count decrease at 10 uM for 48 hours) [%]	inhibition at 10 µM [1] [%]
CN[C@@H](C)C(=O)N[C@H](C(=O)N1CCC[C@H]1C(=O)N[C@H](C(=O)NCCOCCOCCOc1c(-c2csc(N3CCOCC3)n2)ccc(F)c1F)C(c1ccccc1)c1ccccc1)C1CCCCC1 [Example 24, (S)-1-((S)-2-cyclohexyl-2-((S)-2-(methylamino)propanamido)acetyl)-N-((S)-1-((2-(2-(2-(2,3-difluoro-6-(2-morpholinothiazol-4-yl)phenoxy)ethoxy)ethoxy)ethyl)amino)-1-oxo-3,3-diphenylpropan-2-yl)pyrrolidine-2-carboxamide] (H-[NMeA][Chg]P[Dip]-X2)	> 50	–
CN[C@@H](C)C(=O)N[C@H](C(=O)N1CCC[C@H]1C(=O)N[C@H](C(=O)NCCCCCCNC(=O)COc1c(-c2csc(N3CCOCC3)n2)ccc(F)c1F)C(c1ccccc1)c1ccccc1)C1CCCCC1 [Example 26, (S)-1-((S)-2-cyclohexyl-2-((S)-2-(methylamino)propanamido)acetyl)-N-((S)-1-((6-(2-(2,3-difluoro-6-(2-morpholinothiazol-4-yl)phenoxy)acetamido)hexyl)amino)-1-oxo-3,3-diphenylpropan-2-yl)pyrrolidine-2-carboxamide] (H-[NMeA][Chg]P[Dip]-X1)	–	> 50
O=C1CCC(N2C(=O)c3cccc(NCCCCCCNC(=O)c4cn(-c5csc(N6CCOCC6)n5)cn4)c3C2=O)C(=O)N1 (stereo not drawn) [Example 32, N-(6-((2-(2,6-dioxopiperidin-3-yl)-1,3-dioxoisoindolin-4-yl)amino)hexyl)-1-(2-morpholinothiazol-4-yl)-1H-imidazole-4-carboxamide]	–	0 to 20
